Measured values taken from patent US12257247B2 (Monte Rosa Therapeutics AG, priority 2023, dated 2025).
Like-named read-outs stand apart in the source and are kept apart here.

Target: T1, VAV1 (Homo sapiens, UniProt P15498+Q96SW2)
T1 construct: A heterozygous VAV1 C-terminal HiBiT knock-in pool was generated at Monte Rosa Therapeutics from a clonal Jurkat cell; endogenous in cells; host or cells: Jurkat clone stably expressing LgBiT, homozygous GSPT1-G575N; heterozygous VAV1-HiBiT knock-in pool
Test: VAV1 degradation activity, VAV1-HiBiT knock-in Jurkat luminescence assay (Example A, Table 1)
Assay type: cell-based
Details: VAV1-HiBiT knock-in Jurkat cells, luminescence read at 6 and 24 hours; for Dmax: Jurkat
In short: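 Jurkat cells carrying VAV1-HiBiT knock-in, plated in RPMI/10% FBS with Endurazine live-cell substrate and pre-incubated ~16 h at 37° C. Compound dosed from 10 μM stock; luminescence read 6 and 24 h later. Response normalised to plate negative/positive controls, EC50 from 3-parameter logistic fit (hillslope 1).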

[1] = read-out: VAV1 DC50 (nM), class

Structure (SMILES) | Dmax (read-out: VAV1 Dmax %) [%] | Dmax (read-out: VAV1 Dmax %, class) [%] | DC50 (read-out: VAV1 DC50) [nM] | DC50 [1] [nM]
CC1(C)CCC(=O)N(Cc2ccc(-c3cccc(C4CCC(=O)NC4=O)c3Cl)cc2)C1 (centres unmarked) [Compound 284] | 98 | > 90 | 3.48 | ≤ 100
O=C1CCC(c2cccc(-c3ccc(C(=O)N4CCC(F)(F)C4)cc3)c2Cl)C(=O)N1 (centres unmarked) [Compound 221, 3-(2-chloro-4′-(3,3-difluoropyrrolidine-1-carbonyl)-[1,1′-biphenyl]-3-yl)piperidine-2,6-dione] | 77.4 | 60 to 90 | 211 | 100 to 1000
CNc1ccc(-c2cccc(C3CCC(=O)NC3=O)c2Cl)cc1C (centres unmarked) [Compound 116] | 96 | > 90 | 22.3 | ≤ 100
O=C1CCC(c2cccc(-c3ccc(CN4CCCC4=O)cc3)c2Cl)C(=O)N1 (centres unmarked) [Compound 206, 3-(2-chloro-4′-((2-oxopyrrolidin-1-yl)methyl)-[1,1′-biphenyl]-3-yl)piperidine-2,6-dione] | 87.5 | 60 to 90 | 42.7 | ≤ 100
C[C@H]1COCC(=O)N1Cc1ccc(-c2cccc(C3CCC(=O)NC3=O)c2Cl)cc1 (some centres unmarked) [Compound 265] | 88 | 60 to 90 | 32.5 | ≤ 100
Cn1cnc(Cc2ccc(-c3cccc(C4CCC(=O)NC4=O)c3Cl)cc2)c1 (centres unmarked) [Compound 408, 3-(2-chloro-4′-((1-methyl-1H-imidazol-4-yl)methyl)-[1,1′-biphenyl]-3-yl)piperidine-2,6-dione] | 96 | > 90 | 30.8 | ≤ 100
O=C1CCC(c2cccc(-c3ccc4c(c3)CC(=O)N4Cc3cccnn3)c2Cl)C(=O)N1 (centres unmarked) [Compound 395, 3-(2-chloro-3-(2-oxo-1-(pyridazin-3-ylmethyl)indolin-5-yl)phenyl)piperidine-2,6-dione] | 83.9 | 60 to 90 | 55.7 | ≤ 100
O=C1CCC(c2cccc(-c3ccc(CCCn4ccccc4=O)cc3)c2Cl)C(=O)N1 (centres unmarked) [Compound 178, 3-(2-chloro-4′-(3-(2-oxopyridin-1(2H)-yl)propyl)-[1,1′-biphenyl]-3-yl)piperidine-2,6-dione] | 81.1 | 60 to 90 | 239 | 100 to 1000
O=C1CCC(c2cccc(-c3ccc(N4C(=O)CCCC45CC5)c(F)c3)c2Cl)C(=O)N1 (centres unmarked) [Compound 350, 3-(2-chloro-3′-fluoro-4′-(5-oxo-4-azaspiro[2.5]octan-4-yl)-[1,1′-biphenyl]-3-yl)piperidine-2,6-dione] | 97.3 | > 90 | 7.18 | ≤ 100
COC1CCCC(=O)N1Cc1ccc(-c2cccc(C3CCC(=O)NC3=O)c2Cl)cc1 (centres unmarked) [Compound 271] | 83.8 | 60 to 90 | 50.9 | ≤ 100
Cn1ccc(COc2ccc(-c3cccc([C@H]4CCC(=O)NC4=O)c3Cl)cc2)n1 [Compound 213, (R)-3-(2-chloro-4′-((1-methyl-1H-pyrazol-3-yl)methoxy)-[1,1′-biphenyl]-3-yl)piperidine-2,6-dione] | 92 | > 90 | 101 | 100 to 1000
CC1(C)CCCC(=O)N1Cc1ccc(-c2cccc(C3CCC(=O)NC3=O)c2Cl)cc1 (centres unmarked) [Compound 292] | 93.7 | > 90 | 12.7 | ≤ 100
COC(=O)c1ccc(Cc2ccc(-c3cccc(C4CCC(=O)NC4=O)c3Cl)cc2)n1C (centres unmarked) [Compound 375, methyl 5-((2′-chloro-3′-(2,6-dioxopiperidin-3-yl)-[1,1′-biphenyl]-4-yl)methyl)-1-methyl-1H-pyrrole-2-carboxylate] | 98 | > 90 | 14.2 | ≤ 100
O=C1CCC(c2cccc(-c3ccc(-c4cccc5ocnc45)cc3)c2Cl)C(=O)N1 (centres unmarked) [Compound 460, 3-(4′-(benzo[d]oxazol-4-yl)-2-chloro-[1,1′-biphenyl]-3-yl)piperidine-2,6-dione] | 89.9 | 60 to 90 | 277 | 100 to 1000
O=C1CCC(c2cccc(-c3ccc(N4C(=O)OCCC4C(F)(F)F)cc3)c2Cl)C(=O)N1 (centres unmarked) [Compound 305] | 93 | > 90 | 19.6 | ≤ 100
O=C1CCC(c2cccc(-c3ccc(OCc4ccncc4)cc3)c2Cl)C(=O)N1 (centres unmarked) [Compound 124] | 98.8 | > 90 | 4.04 | ≤ 100
O=C1CCC(c2cccc(-c3ccc4c(c3)CCCO4)c2Cl)C(=O)N1 (centres unmarked) [Compound 381, 3-[2-chloro-3-(3,4-dihydro-2H-1-benzopyran-6-yl)phenyl]piperidine-2,6-dione] | 96.5 | > 90 | 35.9 | ≤ 100
CN1CCCN(c2ccc(-c3cccc(C4CCC(=O)NC4=O)c3Cl)cc2F)C1=O (centres unmarked) [Compound 436, 3-(2-chloro-3′-fluoro-4′-(3-methyl-2-oxotetrahydropyrimidin-1(2H)-yl)-[1,1′-biphenyl]-3-yl)piperidine-2,6-dione] | 96 | > 90 | 8.75 | ≤ 100
O=C1CCC(c2cccc(-c3ccc(Cn4ccccc4=O)nc3)c2Cl)C(=O)N1 (centres unmarked) [Compound 447, 3-(2-chloro-3-(6-((2-oxopyridin-1(2H)-yl)methyl)pyridin-3-yl)phenyl)piperidine-2,6-dione] | 61.9 | 60 to 90 | 741 | 100 to 1000
O=C1CCC(c2cccc(-c3ccc(Cc4nccc(C(F)(F)F)n4)cc3)c2Cl)C(=O)N1 (centres unmarked) [Compound 347, 3-(2-chloro-4′-((4-(trifluoromethyl)pyrimidin-2-yl)methyl)-[1,1′-biphenyl]-3-yl)piperidine-2,6-dione] | 96.4 | > 90 | 17.1 | ≤ 100
CC1(C)COCC(=O)N1Cc1ccc(-c2cccc(C3CCC(=O)NC3=O)c2Cl)cc1 (centres unmarked) [Compound 263] | 87.5 | 60 to 90 | 29.3 | ≤ 100
O=C1CCC(c2cccc(-c3cnc(N4C(=O)CCC45CCC5)c(F)c3)c2Cl)C(=O)N1 (centres unmarked) [Compound 365, 3-(2-chloro-3-(5-fluoro-6-(6-oxo-5-azaspiro[3.4]octan-5-yl)pyridin-3-yl)phenyl)piperidine-2,6-dione] | 88 | 60 to 90 | 55 | ≤ 100

The next lines start with the values.

Dmax (read-out: VAV1 Dmax %) [%] | Dmax (read-out: VAV1 Dmax %, class) [%] | DC50 (read-out: VAV1 DC50) [nM] | DC50 [1] [nM] | Structure (SMILES)
95.3 | > 90 | 7.02 | ≤ 100 | Cn1ncc2c1CCN(c1ccc(-c3cccc(C4CCC(=O)NC4=O)c3Cl)cc1)C2=O (centres unmarked) [Compound 313]
95 | > 90 | 10.6 | ≤ 100 | O=C1CCC(c2cccc(-c3ccc(N4CCCC(F)C4=O)cc3)c2Cl)C(=O)N1 (centres unmarked) [Compound 323]
91.6 | > 90 | 17.2 | ≤ 100 | CN1CCN(c2ccc(-c3cccc(C4CCC(=O)NC4=O)c3Cl)cc2)C(=O)C1 (centres unmarked) [Compound 331]
98.5 | > 90 | 2.8 | ≤ 100 | O=C1CCC(c2cccc(-c3ccc(N4C(=O)CCCC45CC5)cc3)c2Cl)C(=O)N1 (centres unmarked) [Compound 232, 3-(2-chloro-4′-(5-oxo-4-azaspiro[2.5]octan-4-yl)-[1,1′-biphenyl]-3-yl)piperidine-2,6-dione]
95.5 | > 90 | 10.6 | ≤ 100 | CC1CCN(c2ccc(-c3cccc(C4CCC(=O)NC4=O)c3Cl)cc2)C(=O)C1 (centres unmarked) [Compound 332]
82.3 | 60 to 90 | 65.3 | ≤ 100 | CN1CC(=O)N(c2ccc(-c3cccc(C4CCC(=O)NC4=O)c3Cl)cc2)CC12CC2 (centres unmarked) [Compound 352, 3-(2-chloro-4′-(4-methyl-6-oxo-4,7-diazaspiro[2.5]octan-7-yl)-[1,1′-biphenyl]-3-yl)piperidine-2,6-dione]
97.2 | > 90 | 4.87 | ≤ 100 | CC1(C)COC(=O)N1c1ccc(-c2cccc(C3CCC(=O)NC3=O)c2Cl)cc1 (centres unmarked) [Compound 415, 3-(2-chloro-4′-(4,4-dimethyl-2-oxooxazolidin-3-yl)-[1,1′-biphenyl]-3-yl)piperidine-2,6-dione]
94.3 | > 90 | 17.5 | ≤ 100 | O=C1CCC(c2cccc(-c3ccc(-n4cc(F)ccc4=O)cc3)c2Cl)C(=O)N1 (centres unmarked) [Compound 246, 3-(2-chloro-4′-(5-fluoro-2-oxopyridin-1(2H)-yl)-[1,1′-biphenyl]-3-yl)piperidine-2,6-dione]
95.2 | > 90 | 9.83 | ≤ 100 | O=C1CCC(c2cccc(-c3ccc(N4CCN(CC(F)F)CC4=O)cc3)c2Cl)C(=O)N1 (centres unmarked) [Compound 446, 3-(2-chloro-4′-(4-(2,2-difluoroethyl)-2-oxopiperazin-1-yl)-[1,1′-biphenyl]-3-yl)piperidine-2,6-dione]
79.4 | 60 to 90 | 552 | 100 to 1000 | O=C1CCC(c2cccc(-c3ccc(N4CCC4)cc3)c2Cl)C(=O)N1 (centres unmarked) [Compound 195, 3-(4′-(azetidin-1-yl)-2-chloro-[1,1′-biphenyl]-3-yl)piperidine-2,6-dione]
